Laboratory results: ChEMBL document CHEMBL5523727, “Discovery of KT-413, a Targeted Protein Degrader of IRAK4 and IMiD Substrates Targeting MYD88 Mutant Diffuse Large B-Cell Lymphoma” (J Med Chem, 2024)
pIC50, pKd: −log10 of the molar value.

Key:
[1] = Volume of distribution at steady state in rat at 2 mg/kg, iv by LC-MS/MS analysis; format: ADME, organism-based; settings: in vivo, read-out: Vdss
[2] = test system: OCI-Ly10; experiment: Antiproliferative activity against human OCI-Ly10 cells measured after 4 days by CellTiter-Glo Luminescent Cell Viability Assay; format: functional, cell-based; settings: Homo sapiens, OCI-Ly10, 96 h
[3] = Metabolic stability in rat liver microsomes assessed as intrinsic clearance at 1 uM measured upto 60 mins in presence of NADPH by UPLC/MS-MS analysis; format: ADME, Microsome; settings: read-out: CLH
[4] = Clearance in rat at 2 mg/kg, iv by LC-MS/MS analysis; format: ADME, organism-based; settings: in vivo
[5] = Passive permeability of the compound in wild type MDCK cells across apical to basolateral side at 1 uM measured for 120 mins by LC-MS/MS analysis; format: ADME, cell-based, Canis lupus familiaris; settings: dog, read-out: permeability
[6] = AUC in rat at 5 mg/kg, po by LC-MS/MS analysis; format: ADME, organism-based; settings: in vivo
[7] = target: Protein cereblon/Interleukin-1 receptor-associated kinase 4 (Homo sapiens, UniProt Q9NWZ3+Q96SW2); experiment: PROTAC activity at CRBN/IRAK4 in human OCI-Ly10 cells assessed as induction of IRAK4 degradation measured after 24 hrs by MSD assay; format: cell-based
Chain of Protein cereblon/Interleukin-1 receptor-associated kinase 4 (Homo sapiens, UniProt Q9NWZ3+Q96SW2) (Q9NWZ3 whole entry): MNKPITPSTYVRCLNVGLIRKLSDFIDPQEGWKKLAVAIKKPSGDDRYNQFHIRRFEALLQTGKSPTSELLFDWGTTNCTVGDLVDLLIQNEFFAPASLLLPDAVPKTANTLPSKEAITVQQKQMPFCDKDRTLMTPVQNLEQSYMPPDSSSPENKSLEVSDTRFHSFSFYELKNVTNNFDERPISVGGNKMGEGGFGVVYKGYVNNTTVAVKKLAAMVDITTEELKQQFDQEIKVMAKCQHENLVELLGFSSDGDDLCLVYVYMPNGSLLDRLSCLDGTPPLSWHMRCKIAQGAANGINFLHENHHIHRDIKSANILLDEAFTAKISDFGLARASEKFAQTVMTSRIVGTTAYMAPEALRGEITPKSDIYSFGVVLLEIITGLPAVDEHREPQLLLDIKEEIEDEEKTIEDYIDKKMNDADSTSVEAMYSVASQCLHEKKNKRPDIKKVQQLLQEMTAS
Chain of Protein cereblon/Interleukin-1 receptor-associated kinase 4 (Homo sapiens, UniProt Q9NWZ3+Q96SW2) (Q96SW2 whole entry): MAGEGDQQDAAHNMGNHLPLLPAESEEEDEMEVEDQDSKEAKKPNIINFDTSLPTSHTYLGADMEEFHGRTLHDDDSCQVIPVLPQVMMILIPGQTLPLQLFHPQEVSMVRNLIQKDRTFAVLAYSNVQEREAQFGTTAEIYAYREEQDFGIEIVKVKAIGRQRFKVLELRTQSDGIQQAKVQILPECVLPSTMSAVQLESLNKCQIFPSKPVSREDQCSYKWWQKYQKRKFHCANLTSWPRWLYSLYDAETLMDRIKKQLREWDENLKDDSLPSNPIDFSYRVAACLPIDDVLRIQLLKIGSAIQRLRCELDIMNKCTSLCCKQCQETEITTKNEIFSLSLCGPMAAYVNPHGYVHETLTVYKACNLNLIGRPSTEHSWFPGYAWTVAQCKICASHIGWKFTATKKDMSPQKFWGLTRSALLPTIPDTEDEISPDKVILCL

[8] = Oral bioavailability in rat at 5 mg/kg by LC-MS/MS analysis; format: ADME, organism-based; settings: in vivo
[9] = Metabolic stability in human liver microsomes assessed as intrinsic clearance at 1 uM measured upto 60 mins in presence of NADPH by UPLC/MS-MS analysis; format: ADME, Microsome; settings: read-out: CLH
[10] = Half life in rat at 2 mg/kg, iv by LC-MS/MS analysis; format: ADME, organism-based; settings: in vivo
[11] = target: T1, Cereblon/Ikaros (Homo sapiens, UniProt Q96SW2+Q13422); experiment: PROTAC activity at CRBN/Ikaros in human OCI-Ly10 cells assessed as induction of Ikaros degradation measured after 24 hrs by MSD assay; format: cell-based
T1 sequence (Q96SW2 whole entry): as above
T1 sequence (Q13422 whole entry): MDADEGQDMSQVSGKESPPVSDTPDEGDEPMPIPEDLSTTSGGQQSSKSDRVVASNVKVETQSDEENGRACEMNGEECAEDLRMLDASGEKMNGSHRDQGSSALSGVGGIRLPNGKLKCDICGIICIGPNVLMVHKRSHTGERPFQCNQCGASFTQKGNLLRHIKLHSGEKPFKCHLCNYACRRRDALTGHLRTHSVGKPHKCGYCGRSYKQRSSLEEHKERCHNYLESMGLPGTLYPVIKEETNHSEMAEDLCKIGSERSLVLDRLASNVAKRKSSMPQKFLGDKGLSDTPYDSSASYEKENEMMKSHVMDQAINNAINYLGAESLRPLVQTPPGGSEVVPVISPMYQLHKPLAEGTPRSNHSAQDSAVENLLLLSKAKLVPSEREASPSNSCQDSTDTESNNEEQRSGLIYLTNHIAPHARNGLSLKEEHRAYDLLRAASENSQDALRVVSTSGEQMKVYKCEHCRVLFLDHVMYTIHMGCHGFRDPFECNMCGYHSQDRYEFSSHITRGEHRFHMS

[12] = target: Protein cereblon/Interleukin-1 receptor-associated kinase 4 (Homo sapiens, UniProt Q96SW2+Q9NWZ3); experiment: Binding affinity to CRBN/IRAK4 […] assessed as dissociation constant by DiscoverX Kd Elect assay
Chain of Protein cereblon/Interleukin-1 receptor-associated kinase 4 (Homo sapiens, UniProt Q96SW2+Q9NWZ3) (Q9NWZ3 whole entry): as the sequence (Q9NWZ3 whole entry) above
Chain of Protein cereblon/Interleukin-1 receptor-associated kinase 4 (Homo sapiens, UniProt Q96SW2+Q9NWZ3) (Q96SW2 whole entry): as the sequence (Q96SW2 whole entry) above

[13] = target: Protein cereblon (Homo sapiens, UniProt Q96SW2); experiment: Binding affinity to CRBN (unknown origin) by HTRF assay
Chain of Protein cereblon (Q96SW2 whole entry): as above

[14] = target: T1, Cereblon/Ikaros; experiment: PROTAC activity at CRBN/Ikaros in human OCI-Ly10 cells assessed as induction of Ikaros degradation measured after 6 hrs by MSD assay relative to control; format: cell-based
[15] = Half life in Non human primate plasma; format: ADME, cell-free; settings: primates
[16] = Half life in human plasma; format: ADME, cell-free
[17] = Drug exposure in rat administered as iv bolus dose; format: ADME, organism-based; settings: in vivo
[18] = Half life in dog plasma; format: ADME, cell-free, Canis lupus familiaris
[19] = Drug exposure in Non human primate administered as iv dose; format: ADME, organism-based; settings: primates, in vivo
[20] = Half life in rat plasma; format: ADME, cell-free

Compound	Vd [1] [L/kg]	pIC50 [2]	microsomal CLint at 1 µM [3] [µL/min/mg]	clearance [4] [mL/min/kg]	Papp A→B at 2 h, 1 µM [5] [×10⁻⁶ cm/s]	AUC [6] [µM·h]	DC50 [7] [µM]	bioavailability [8] [%]	microsomal CLint at 1 µM [9] [µL/min/mg]	half-life [10] [h]	DC50 [11] [µM]	pKd [12]	pIC50 [13]	Emax [14] [%]	half-life [15] [h]	half-life [16] [h]	Drug uptake [17] [%]	half-life [18] [h]	Drug uptake [19] [%]	half-life [20] [h]
COc1cc2nc([C@H]3CC[C@H](CN4CC5(CC(CCNc6cccc7c6C(=O)N(C6CCC(=O)NC6=O)C7=O)C5)C4)CC3)sc2cc1NC(=O)c1cccc(C(F)(F)F)n1 (some centres undefined)	9.7	7.14	1	4.8	0.18	2.5	0.035	23	1.5	24	0.014	–	–	–	–	–	–	–	–	–
CN(CCCCc1cccc2c1C(=O)N(C1CCC(=O)NC1=O)C2=O)C[C@H]1CC[C@H](n2cc3cc(NC(=O)c4cccc(C(F)(F)F)n4)c(C(C)(C)O)cc3n2)CC1 (some centres undefined)	–	< 6.00	–	–	1.3	–	0.02	–	–	–	> 1	9.85	7.04	40	–	–	–	–	–	–
CC(C)(O)c1cc2nn([C@H]3CC[C@H](CN4CCC5(CC4)CC(CNc4cccc6c4C(=O)N(C4CCC(=O)NC4=O)C6=O)C5)CC3)cc2cc1NC(=O)c1cccc(C(F)(F)F)n1 (some centres undefined)	13	8.10	2.1	15	2.2	0.06	0.006	1	2.8	11	0.006	–	7.36	–	–	–	–	–	–	–
CC(C)(O)c1cc2nc([C@H]3CC[C@H](CN4CC5(CC(CCNc6cccc7c6C(=O)N([C@@H]6CCC(=O)NC6=O)C7=O)C5)C4)CC3)sc2cc1NC(=O)c1cccc(C(F)(F)F)n1	–	–	–	–	–	–	0.019	–	–	–	0.009	–	6.96	–	3.03	2.92	48	3.07	30	2.38
